{
  "source": "patent US4540709A",
  "about": "“Method for treatment of diseases mediated by PAF using 5-allyl-2-(3,4-Dimethoxyphenyl)-3a,α-methoxy-3-methyl-2,3,3a,6-tet rahydro-6-oxobenzofuran” (Merck & Co., Inc., priority 1983, dated 1985)",
  "key": {"human platelets": {"tested_on": "human platelets", "assay": "PAF-induced platelet aggregation (human platelets)", "assay_type": "cell-based", "conditions": "in vitro"}, "H1": {"tested_on": "H1", "assay": "Binding of H1 antagonist (3H-pyrilamine) to guinea pig brain membrane"}, "human PMN": {"tested_on": "human PMN", "assay": "PAF-induced human PMN secretion", "assay_type": "cell-based", "conditions": "in vitro"}, "[1]": {"tested_on": "PAF-induced cutaneous vascular permeability", "assay": "Inhibition of PAF-induced increase of cutaneous vasopermeability, oral activity (Evans Blue)", "assay_type": "in vivo", "conditions": "guinea pig", "source_text": "The specific PAF-antagonistic activities are further established by an in vivo assay (modified procedure of Humphrey et al., Lab. Investigation 46, 422 (1982)) following the protocol described below:\nProtocol for the evaluation of the oral activity of PAF antagonists or the inhibition of PAF-induced increase of vasopermeability by PAF-antagonists\nI. Animal species: 5 guinea pigs (400-500 g)\n0.5% (w/v) aqueous methylcellulose solution sodium nembutol\n2% Evans Blue solution: 2 g of Evans Blue in 100 ml of pH 7.5 Tris-buffer solution\nTris-Buffer solution: 150 mM NaCl and 10 mM Tris in […] of water with pH adjusted to 7.5.\n1. Weigh the guinea pigs. Label them as control, T1, T2, T3 and T4.\n2. Fast the animals overnight.\n3. Weigh the animals again after the fasting.\n4. Ground and suspend a PAF antagonist such as compound (I) with intensive sonication in 3 ml of 0.5% aqueous methylcellulose solution.\n5. Administer orally to each of the animals T1, T2, T3 and T4 an appropriate amount (in terms of mg/kg of bodyweight) of the antagonist solution from 4.), except the control animal which should receive only the 0.5% aq. methylcellulose solution.\n6. Forty minutes after the oral administration, anesthetize the animals with sodium nembutol (0.75 ml/kg i.p.).\n7. After 20 minutes or when tne anesthetics became effective, inject intracardially to each animal 2 ml/kg body weight of the 2% Evans Blue solution.\n8. Wait for 10 minutes. In the meantime, shave the backs of the guniea pigs and get ready for the PAF injection. Select two rows of 5 (a total of ten) sites on the back of each animal and designate them as sites […]\n______________________________________\nand inject intracutaneously, in duplicate 0.1 ml of a PAF solution in Tris-buffer or 0.1 ml of the Tris-buffer itself (control) according to the following schedule: […]\nSites Solution to be injected […]\n15. Measure the absorbance of each supernatant from Step (14) (\"skin sample\") as well as the plasma extract from Step (13) (\"plasma sample\") at 620 nm with a Cary 210 spectrophotometer (Varian, Palo Alto, Calif.). […]"}, "rabbit platelets": {"tested_on": "rabbit platelets", "assay": "PAF-induced platelet aggregation (rabbit platelets)", "assay_type": "cell-based", "conditions": "in vitro"}, "guinea pig smooth muscle": {"tested_on": "guinea pig smooth muscle", "assay": "PAF-induced guinea pig smooth muscle contraction", "conditions": "in vitro"}, "guinea pig ileum": {"tested_on": "guinea pig ileum", "assay": "Histamine-induced ileum contraction in guinea pigs"}, "[2]": {"molecular_target": "T1, PAF specific receptor binding site on rabbit platelet plasma membranes (Oryctolagus cuniculus, UniProt G1TEI7)", "T1 construct": "from tissue; host or cells: rabbit platelet plasma membranes", "T1 sequence (G1TEI7 1-342)": "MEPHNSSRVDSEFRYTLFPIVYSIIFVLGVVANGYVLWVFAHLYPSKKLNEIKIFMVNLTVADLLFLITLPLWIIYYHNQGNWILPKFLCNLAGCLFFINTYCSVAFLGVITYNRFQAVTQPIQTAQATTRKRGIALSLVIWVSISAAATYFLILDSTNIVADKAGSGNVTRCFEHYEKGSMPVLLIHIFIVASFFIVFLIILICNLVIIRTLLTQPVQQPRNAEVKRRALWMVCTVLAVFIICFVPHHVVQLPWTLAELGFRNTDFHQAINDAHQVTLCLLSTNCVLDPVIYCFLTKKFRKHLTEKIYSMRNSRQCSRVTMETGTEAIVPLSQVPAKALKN", "assay": "Inhibition of 3H-PAF binding to rabbit platelet plasma membrane", "conditions": "in vitro, 0° C., pH 7.5", "protocol": "In vitro, compound (I) inhibits PAF-induced functions in both the cellular and the tissue levels by disturbing the PAF binding to its specific receptor site. The ability of compound (I) to inhibit the PAF binding to its specific receptor binding site on rabbit platelet plasma membranes was measured by an assay recently developed by us.\nThe inhibition of H^3 -PAF binding to the rabbit platelet plasma membrane by compound (I) was determined by a method employing isotopic labeling and filtration techniques. Generally, a series of Tris-buffered solutions of the selected antagonist at predetermined concentrations were prepared. […] Ten […] of scintillation solution (Aquasol 2, New England Nuclear, Connecticut) was added with stirring to each filter containing the washed residue, and the radioactivity of each resulting suspension was counted in a Packard Tri-Carb 460CD Liquid Scintillation System. Defining the counts from a test sample as \"Total binding with antagonist\"; the counts from the control sample C1, as \"Total binding C1 \"; and the counts from the control sample C2 as \"non-specific binding C2 \", the percent inhibition of each test antagonist can be determined by the following equation: [formula]"}, "[3]": {"tested_on": "guinea pig peritoneal PMN (polymorphonuclear leukocytes)", "assay": "PAF-induced guinea pig peritoneal PMN aggregation", "assay_type": "cell-based", "conditions": "in vitro"}},
  "data": [
    {"smiles": "C=CCC1=CC2(OC)C(=CC1=O)OC(c1ccc(OC)c(OC)c1)C2C", "note": "(stereo not drawn) [Compound (I), 5-allyl-2-(3,4-dimethoxyphenyl)-3a,α-methoxy-3-methyl-2,3,3a,6-tetrahydro-6-oxobenzofuran]", "values": [
      {"measurement": "inhibition of PAF-induced platelet aggregation", "setting": "human platelets", "result": "inhibits"},
      {"measurement": "inhibition of binding of H1 antagonist (3H-pyrilamine)", "setting": "H1", "result": "do not inhibit"},
      {"measurement": "inhibition of PAF-induced PMN secretion", "setting": "human PMN", "result": "inhibits"},
      {"measurement": "% inhibition", "setting": "[1]; 25 mg/kg P.O.", "result": 43, "unit": "%"},
      {"measurement": "% inhibition", "setting": "[1]; 50 mg/kg P.O.", "result": 63, "unit": "%"},
      {"measurement": "ED50", "setting": "[1]; Cavia porcellus, po, P.O.", "result": 30, "unit": "mg/kg"},
      {"measurement": "inhibition of PAF-induced platelet aggregation", "setting": "rabbit platelets", "result": "inhibits"},
      {"measurement": "inhibition of PAF-induced smooth muscle contraction", "setting": "guinea pig smooth muscle", "result": "inhibits"},
      {"measurement": "inhibition of histamine-induced ileum contraction", "setting": "guinea pig ileum", "result": "no or only minute inhibition"},
      {"measurement": "IC50", "setting": "[2]", "result": 0.174, "unit": "µM"},
      {"measurement": "inhibition of PAF-induced peritoneal PMN aggregation", "setting": "[3]", "result": "inhibits"}
    ]}
  ]
}
